Molecules are shown by their SMILES. Where “and” joins values, the source holds several entries; their conditions need not be identical. Equal values may be shown once.

For test [1], the target named is purified recombinant human LDHA protein (Homo sapiens, UniProt P00338). Description: Lactate dehydrogenase A (LDHA) inhibitory assay. Type of test: biochemical. Conditions: for Fold change of LDHA inhibition as compared to 0.1 mg/mL: % inhibition at 0.200 mg/mL divided by % inhibition at 0.100 mg/mL; for inhibition at 100 µg/mL: at 0.1 mg/mL; for inhibition at 100 µg/mL / inhibition at 200 µg/mL: read-out: LDHA mean % inhibition ± SD; for inhibition at 200 µg/mL: at 0.2 mg/mL. The procedure:
The LDHA inhibitory effectiveness was investigated by measuring the amounts of consumed NADH [73]. […] The fluorescence of NADH, which has an excitation wavelength of 340 nm and an emission wavelength of 460 nm, was detected using a spectrofluorometer. […] The LDHA inhibitory efficiency was expressed as an inhibition percentage, which was determined via a comparison with the negative control experiments.

The test system of the next test is caspase-9. Description: Western blot of caspase-9 in cell lysates. Type of test: cell-based, human. To be noted: 50 µg/mL, 48 h. As to the method:
(§1) Furthermore, in order to confirm the implication of these compounds in the apoptotic pathways trigged by caspases, the proteins levels of caspases 8 and 9 were evaluated using Western blot analysis for the HCT-116 and LoVo carcinoma cells lysates after treatment with compounds 3a and 3f (50 µg/mL for 48 h); the untreated cells were used as a negative control.
(§2) In order to determine the levels of production of caspases 8 and 9 by the treated carcinoma cells, Western blot analysis was carried out using a FLAG® Western Detection Kit (Agilent Technologies, USA). Exponentially growing HCT-116 and LoVo cells were treated with 50 µg/mL of derivatives 3a and 3f for 48 h. After incubation, the cells were harvested and lysed using a Lysis buffer consisting of 10 mM of Tris, 100 mM of NaCl, 25 mM of ethylenediaminetetra aceticacid (EDTA), 25 mM of Ethylene glycol bis(2-aminoethyl)tetraacetic acid (EGTA), 0.1% Sodium dodecyl sulfate (SDS), 1% (v/v) Triton X-100 and 2% (v/v) NP-40 (pH 7.4), with a 1:200 protease inhibitor cocktail (Sigma-Adrich) and a 1:300 phosphatase inhibitor cocktail tablet (Roche Applied Science, Mannheim, Germany). The protein concentrations of each sample were determined calorimetrically using the Bradford method before proceeding to carry out the Western blotting. Equal amounts (20 µg) of the protein samples were mixed and boiled with SDS Loading buffer for 10 min, allowed to cool on ice and then loaded into SDS-polyacrylamide gel and separated using a Cleaver electrophoresis unit (Cleaver, Warwickshire, UK), before being transferred onto polyvinylidene fluoride (PVDF) membranes (Bio-Rad, USA) for 30 min using a Semi-dry Electroblotter (Biorad, USA) at 2.5 A and 25 V for 30 min. The membrane was blocked with 5% nonfat dry milk in TBS-T for two hours at room temperature, in order to reduce non-specific protein interactions between the membrane and the antibody. The blocked membrane was incubated overnight at 4 °C with primary antibodies (Cell Signaling Technology, Massachusetts, USA) and β-actin (Sigma). […] Briefly, the membranes were incubated for 1 min with a mixture of equal volumes of ECL solution A and ECL solution B. The chemiluminescent signals were captured using a CCD camera-based imager (Chemi Doc imager, Biorad, USA), and the bands’ intensities were then measured using ImageLab v3.0 (Bio-Rad). […] The proteins were detected using an enhanced chemiluminescence (ECL) detection system (Thermo Fischer Scientific, USA). The intensities of the bands were quantified using the NIH ImageJ software v3.0.1 (http://rsb.info.nih.gov/ij/).
(In general: A western blot detects proteins with antibodies after separation by electrophoresis.)

The subject of the next test is caspase-8. Description: Western blot of caspase-8 in cell lysates. To be noted: 50 µg/mL, 48 h. Type of test: cell-based, human. The procedure: as §1, §2
Test [2] concerns LoVo human colon carcinoma cells. Description: Viability assay (LDH release), LoVo. Format: cell-based. Conditions: for viability at 200 µg/mL: 48 h, read-out: Mean % of viable cells ± SD, LoVo; for IC50: from concentration–response curves. Summed up:
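LoVo human colon carcinoma cells were grown for 24 h at 37 °C in a humidified 5% CO2 incubator in Dulbecco's Modified Eagle's Medium containing 10% FBS, then exposed to test samples for 48 h. Lactate dehydrogenase released into the supernatant was measured by ELISA end-point assay at 550 nm, using 0.1% Triton X-100 as positive control and medium alone as negative control. Viability was reported as mean % ± SD (n = 3) and compared against HUVEC cells.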
Background: LDH leaks from cells whose membrane has failed.

Consider `O=c1c2cc(Cl)ccc2[nH]c(=S)n1-c1ccc([N+](=O)[O-])cc1` [Compound 3f, 6-Chloro-3-(4-nitro-phenyl)-2-thioxo-2,3-dihydro-1H-quinazolin-4-one], for which, in test [1], the “Fold change of LDHA inhibition as compared to 0.1 mg/mL” value turned out to be 1.59 fold, the inhibition (usually the percentage by which the read-out fell short of the control) at 100 µg/mL turned out to be 21.5 ± 1.56% and the inhibition at 200 µg/mL came out at 34.2 ± 1.77%. The “Increase in expression level of caspase-9” value (“Increase in expression level” below) in the test with caspase-9 (lysates of HCT-116) worked out at 3.1 times. Also, the “Increase in expression level” value in the test with caspase-9 (lysates of LoVo) is on record as 4.8 times. Besides, the “Increase in expressional level of caspase 8” value (from here on “Increase in expressional level”) with caspase-8 (lysates of HCT-116) turned out to be 2.2 times. Besides, the “Increase in expressional level” value in the test with caspase-8 (lysates of LoVo) came to 4.1 times. Also, in test [2] (Homo sapiens, LoVo), the viability at 200 µg/mL worked out at 22.7 ± 2.08%; the IC50 (usually the concentration that inhibits the measured activity by half) was 384 µM and 128 µg/mL. This compound also gave a 50% inhibitory concentration (IC50) in test [2] of 384 µM.
For the compound `O=c1c2cc(Cl)ccc2[nH]c(=S)n1-c1cccc(C(F)(F)F)c1` [Compound 3a, 6-Chloro-2-thioxo-3-(3-trifluoromethyl-phenyl)-2,3-dihydro-1H-quinazolin-4-one], in test [1], the “Fold change of LDHA inhibition as compared to 0.1 mg/mL” value is reported as 1.84 fold. The inhibition at 100 µg/mL in test [1] stood at 53.5 ± 1.13%. The inhibition at 200 µg/mL in test [1] is 98.5 ± 1.34%. The half-inhibitory concentration (IC50) is 273 µM in test [1] (mean ± SD of three replicates); 294 µM and 105 µg/mL in test [2] (Homo sapiens, LoVo); 294 µM in test [2]. The results for the “Increase in expression level” value in the test on caspase-9 (lysates of HCT-116) and with caspase-9 (lysates of LoVo) were 3.6 times and 7.2 times, respectively. Besides, the “Increase in expressional level” value worked out at 2.3 times in the test on caspase-8 (lysates of HCT-116) and 5.1 times in the test on caspase-8 (lysates of LoVo). The viability at 200 µg/mL in test [2] (Homo sapiens, LoVo) was determined as 23.5 ± 1.5%.

These data come from article PMC10610505, “Synthesis and Biological Evaluation of Some New 3-Aryl-2-thioxo-2,3-dihydroquinazolin-4(1H)-ones and 3-Aryl-2-(benzylthio)quinazolin-4(3H)-ones as Antioxidants; COX-2, LDHA, α-Glucosidase and α-Amylase Inhibitors; and Anti-Colon Carcinoma and Apoptosis-Inducing Agents” (Pharmaceuticals, 2023).
